Experiments:
Assay type in all cases: functional
[1] = tested on: Saccharomyces cerevisiae; experiment: (§1) MMV: Growth assays were conducted using the prototrophic S. cerevisiae strain JHY222. Each MMV compound (0.1 mM) was tested in rich media containing dextrose as a carbon source (Yeast Extract, Peptone, Dextrose; YPD). The growth rate in the presence of each MMV compound was calculated as follows: (i) the first 10 OD readings were averaged and subtracted from all OD readings of the corresponding curve to set the baseline of the growth curve to zero, and (ii) the area under the curve (AUC) was then calculated as the sum of all OD readings. […] A relative growth value was calculated as follows: AUC(DRUG) - AUC(DMSO)/AUC(DMSO); where AUC(DMSO) represents growth measured in a DMSO control well that was on the same microtiter plate of the drug-treated culture.
[2] = tested on: Saccharomyces cerevisiae; experiment: as §1, with “minimal” for “rich”, “Nitrogen Base,” for “Extract, Peptone,”, “YNBD).” for “YPD).”
[3] = tested on: Saccharomyces cerevisiae; experiment: as §1, with “minimal” for “rich”, “ethanol and glycerol” for “dextrose”, “as” for “as a”, “sources” for “source”, “Nitrogen Base, Ethanol, Glycerol; YNBEG).” for “Extract, Peptone, Dextrose; YPD).”

| SMILES | Relative Growth [1] | Relative Growth [2] | Relative Growth [3] |
| --- | --- | --- | --- |
| Cc1ccc(C2CC(C(F)(F)F)n3nc(C(=O)N4CCN(C(c5ccccc5)c5ccccc5)CC4)cc3N2)cc1 (configuration not stated) | 0.0315 | -0.1134 | -0.019 |
| COCCN(C(=O)Cc1cccs1)C(C(=O)NCc1ccc(OC)cc1)c1ccc(C(C)C)cc1 (configuration not stated) | 0.0044 | 0.0051 | 0.2007 |
| COc1ccc(C(=O)C2CC2c2ccc(Cl)cc2)cc1 (configuration not stated) | -0.0484 | -0.0877 | -0.181 |
| CCOC(=O)c1c[nH]c2c(CC)cccc2c1=O | -0.0665 | -0.1466 | -0.0989 |
| Cc1cc(N2CCN(C3CCCC3)CC2)n2c(nc3ccccc32)c1C#N | -0.0263 | 0.1152 | -0.0829 |
| CCOc1cc2c(cc1OCC)C(c1cc(Cl)c(O)c(OCC)c1)NCC2 (configuration not stated) | 0.0051 | 0.0679 | -0.0121 |
| CCCCOc1ccc(C(=O)Nc2cc(C)on2)cc1 | -0.0346 | -0.0653 | -0.1988 |
| COc1ccc2nc(C)cc(Nc3ccc(Cl)cc3)c2c1 | -0.0836 | 0.0064 | -0.1037 |
| O=c1nc(C=Cc2ccc(Br)cc2)oc2ccccc12 | -0.0705 | 0.007 | 0.0189 |
| CC(O)(c1ccc(Cl)cc1)C(CN1CCCCC1)c1ccccc1.Cl (configuration not stated) | 0.0259 | -0.0009 | 0.0803 |
| COc1ccccc1NC1=C(N2CCCCC2)C(=O)c2ccccc2C1=O | -0.0045 | 0.0574 | 0.1747 |
| CCOC(=O)c1c(C)n(-c2ccc(Cl)cc2)c2ccc(OC(=O)C=Cc3ccccc3)cc12 | -0.0067 | 0.0402 | 0.0277 |
| COc1ccc(-c2nonc2NC(=O)c2cccc(Cl)c2)cc1OC | -0.028 | 0.1832 | 0.0561 |
| Cc1cc(NCCN2CCCCC2)c2ccc3ccccc3c2n1 | 0.101 | 0.1405 | 0.1901 |
| Cc1sc(NC(=O)c2ccco2)c(C(c2cccnc2)N2CCC(Cc3ccccc3)CC2)c1C (configuration not stated) | -0.0153 | 0.0125 | 0.0498 |
| OC(CNCC1CCCO1)Cn1c2ccc(Cl)cc2c2cc(Cl)ccc21 (configuration not stated) | -0.0004 | 0.0307 | 0.0106 |
| CC(=O)c1ccc(NC(=O)CSc2nc(-c3ccccc3Cl)ns2)cc1 | -0.0294 | 0.0088 | 0.0011 |
| CCN1CCN(c2cc(C)c3cc(NC(=O)c4ccc(OC)c(OC)c4)ccc3n2)CC1 | -0.0203 | -0.0518 | -0.0282 |
| COc1nc(Nc2ccc(C(C)C)cc2)nc(OC)n1 | -0.007 | 0.0529 | 0.0254 |
| Cc1ccc(CN2CCC(C(=O)Nc3ccc(-c4cc5ccccc5[nH]4)cc3)CC2)o1 | 0.0612 | -0.0113 | -0.0247 |
| Oc1ccc(-c2nc(-c3ccc4oc5ccc(-c6[nH]c(-c7ccc(O)cc7)nc6-c6ccccc6)cc5c4c3)c(-c3ccccc3)[nH]2)cc1 | -0.979 | 0.0106 | -0.1734 |
| Cc1ccc(N2C(=O)C3C(C2=O)C2(c4ccccc4)C(=O)C3(c3ccccc3)C(c3ccccc3)=C2c2ccccc2)cc1 (configuration not stated) | 0.0561 | 0.0552 | 0.0311 |

| SMILES | Relative Growth [1] | Relative Growth [2] | Relative Growth [3] |
| --- | --- | --- | --- |
| Cc1cc(C)c2nc(N3CCC(C(=O)NCCCN4CCC(N5CCCCC5)CC4)CC3)sc2c1 | -0.0409 | -0.0696 | -0.0414 |
| CCOc1ccc(Nc2c3ccccc3nc3ccccc23)cc1.Cl | -0.0047 | 0.0198 | 0.0301 |
| CCOC(=O)c1ccc2nc(-c3ccccc3)cc(O)c2c1 | -0.0952 | 0.1214 | 0.0616 |
| CCCCCC(=O)N1c2ccccc2N=C2CC(c3ccc(OC)c(OC)c3)CC(O)=C2C1c1ccc(C(F)(F)F)cc1 (configuration not stated) | -0.0291 | 0.1507 | 0.0121 |
| CCOC(=O)c1cnc2c(C)cc(C)cc2c1Nc1ccc(OC)c(OC)c1 | -0.1039 | 0.0948 | -0.222 |
| CCN(CC)CCn1c(=N)n(CC(O)c2ccc(Cl)c(Cl)c2)c2ccccc21.Cl (configuration not stated) | -0.0663 | 0.0285 | 0.1274 |
| CCN(CC)CCNc1ccnc2cc(Cl)ccc12 | -0.0501 | 0.0543 | 0.0209 |
| CCC(=O)Nc1nnc(Cc2ccc(OC)c(OC)c2)s1 | -0.0143 | -0.019 | -0.1225 |
| CCN(CC)CCCNc1nc(-c2ccc(Cl)cc2)nc2ccccc12 | -0.029 | 0.0809 | -0.0397 |
| CCOc1cc(CNC(C)C(O)c2ccccc2)cc(Cl)c1OCC (configuration not stated) | -0.0689 | 0.088 | -0.0694 |
| COc1cccc(Nc2nc(N)c3ccccc3n2)c1.Cl | 0.0358 | 0.0154 | -0.036 |
| Cc1ccc2cc3c(N)c4c(C)ccc(C)c4nc3nc2c1 | 0.0134 | 0.1003 | 0.0509 |
| COc1cccc(NC(=O)[C@H](C(C)C)n2c(=O)[nH]c3ccccc3c2=O)c1 | 0.0157 | -0.0427 | 0.0015 |
| COc1ccc(NC(=O)C2c3ccccc3C(=O)N(CC(C)C)C2c2cccs2)cc1Cl (configuration not stated) | -0.1808 | 0.0154 | -0.0036 |
| COc1cc2cc(C(=O)Nc3ccccc3)c(N)nc2cc1OC | -1.0109 | -0.0986 | 0.0392 |
| Cc1cccc(N2C(=O)C3C(C2=O)C2(c4ccccc4)C(=O)C3(c3ccccc3)C(c3ccc4c(c3)OCO4)=C2c2ccc3c(c2)OCO3)c1 (configuration not stated) | -0.0089 | -0.0077 | -0.1627 |
| OC(CNC1CCCCC1)Cn1c2ccc(I)cc2c2cc(I)ccc21 (configuration not stated) | 0.0125 | 0.4002 | -0.0994 |
| COc1ccc(-c2nc(NC(=O)CS(=O)(=O)c3ccc(F)cc3)sc2C)cc1 | 0.0127 | 0.0372 | 0.1484 |
| CCCCCCn1c(=N)n(CC(O)COc2cccc(C)c2)c2ccccc21.Cl (configuration not stated) | -0.051 | -0.1558 | -0.0105 |
| CN1c2ccccc2N(C)C1c1ccc2c(c1)OCO2 | 0.0103 | -0.0051 | 0.1265 |
| O=C(Nc1cccc(C2=NCCN2)c1)Nc1cccc(C2=NCCN2)c1 [IMIDOCARB] | -0.365 | 0.0218 | 0.0151 |
| COc1ccc(C(=O)NC(c2ccc(Cl)cc2Cl)c2cc(Cl)c3cccnc3c2O)cc1 (configuration not stated) | 0.0373 | -0.2517 | -0.3135 |

Reference: ChEMBL document CHEMBL3301546, “MMV Malaria Box yeast growth screening”
